Converted amounts (≈) assume the structure as drawn.
Tests used:
[1] = target: T1, Pseudomonas aeruginosa LpxC enzyme (Pseudomonas aeruginosa, UniProt P47205); experiment: IC50 assay, LpxC enzyme from P. aeruginosa; format: biochemical; details: 0.5 nM enzyme, 25° C., pH 8.0, 20 min; ** = average of 2-8 assays
T1 construct: made in house; host or cells: E. coli
T1 sequence (P47205 1-303): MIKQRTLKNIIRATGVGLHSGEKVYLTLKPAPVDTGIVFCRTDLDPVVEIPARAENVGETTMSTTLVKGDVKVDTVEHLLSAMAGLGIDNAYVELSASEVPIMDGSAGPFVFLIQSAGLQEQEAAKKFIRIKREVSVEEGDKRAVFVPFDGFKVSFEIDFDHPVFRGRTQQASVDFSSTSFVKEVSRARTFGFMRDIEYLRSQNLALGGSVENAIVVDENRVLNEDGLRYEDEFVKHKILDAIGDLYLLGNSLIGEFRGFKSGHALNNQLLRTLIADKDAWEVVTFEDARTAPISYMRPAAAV
In short: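 P. aeruginosa LpxC (0.5 nM, expressed in E. coli) reacted with 0.5 uM ³H-acetyl-labelled UDP-3-O-(R-3-hydroxydecanoyl)-GlcNAc in 50 mM sodium phosphate pH 8.0 with 1 mg/ml BSA at 25 °C for 20 min. Charcoal stopped the reaction, and filtrate radioactivity was counted by scintillation after no-enzyme background subtraction.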

Escherichia coli EC-1 = experiment: MIC determination, E. coli EC-1; format: cell-based; details: EC1, EC-1: VOGEL, * = arithmetic mean of 2-6 MIC determinations, read-out: MIC (ug/mL) E. coli EC-1
In short: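 Minimum inhibitory concentration against Escherichia coli EC-1 was determined in vitro by dilution susceptibility testing under CLSI M7-A7 and M100-S18 guidelines.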

[2] = test system: Staphylococcus aureus ATCC 29213; experiment: MIC determination, S. aureus ATCC 29213; format: cell-based; details: ATCC29213, CLSI quality control reference strain, * = arithmetic mean of 2-6 MIC determinations, read-out: MIC (ug/mL) S. aureus ATCC 29213
In short: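 MIC was measured by dilution susceptibility testing following CLSI guidelines (M7-A7; M100-S18). The test organism is the CLSI quality-control reference strain.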

P. aeruginosa PAO280 = experiment: MIC determination, P. aeruginosa PAO280; format: cell-based; details: Pseudomonas aeruginosa, PAO280, read-out: MIC (ug/mL) P. aeruginosa PAO280
In short: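 Broth dilution MIC per CLSI M7-A7/M100-S18 guidelines. Strain PAO280 lacks efflux pumps MexAB-oprM, MexXY and MexZ.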

P. aeruginosa UI-18 = experiment: MIC determination, P. aeruginosa UI-18; format: cell-based; details: Pseudomonas aeruginosa, UI18; wild-type; * = arithmetic mean of 2-6 MIC determinations; read-out: MIC (ug/mL) P. aeruginosa UI-18
In short: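 MIC by broth dilution following CLSI M7-A7 and M100-S18 guidelines, tested against wild-type P. aeruginosa UI-18.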

Klebsiella pneumoniae = experiment: MIC determination, K. pneumoniae; format: cell-based; details: ciprofloxacin-resistant, ESBL-expressing clinical isolate, * = arithmetic mean of 2-6 MIC determinations, read-out: MIC (ug/mL) K. pneumoniae
In short: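 MIC determined by broth dilution per CLSI M7-A7 and M100-S18 guidelines. Strain: ciprofloxacin-resistant, ESBL-expressing clinical isolate of K. pneumoniae.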

Enterobacter aerogenes = experiment: MIC determination, E. aerogenes; format: cell-based; details: Klebsiella aerogenes; quinolone-resistant, ESBL-expressing clinical isolate; * = arithmetic mean of 2-6 MIC determinations; read-out: MIC (ug/mL) E. aerogenes
In short: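 Clinical E. aerogenes isolate, quinolone-resistant and ESBL-expressing. MIC measured in vitro by dilution testing according to CLSI guidelines (M7-A7, M100-S18).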

[3] = test system: Acinetobacter baumanii/haemolyticus; experiment: MIC determination, A. baumanii/haemolyticus; format: cell-based; details: Acinetobacter baumannii; multidrug-resistant clinical isolate; * = arithmetic mean of 2-6 MIC determinations; read-out: MIC (ug/mL) A. baumanii/haemolyticus
In short: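 MICs were determined by CLSI broth dilution (M7-A7, M100-S18) against a multidrug-resistant clinical isolate of Acinetobacter baumanii/haemolyticus.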

Compound	IC50 [1] [µM]	MIC (Escherichia coli EC-1) [µg/mL]	MIC [2] [µg/mL]	MIC (P. aeruginosa PAO280) [µg/mL]	MIC (P. aeruginosa UI-18) [µg/mL]	MIC (Klebsiella pneumoniae) [µg/mL]	MIC (Enterobacter aerogenes) [µg/mL]	MIC [3] [µg/mL]
C[S+]([O-])c1cc([C@H](O)[C@](C)(OCc2ccc(-c3ccc(F)cc3)cc2)C(=O)NO)no1 (stereo partly drawn) [Example 44, (2S,3S)-2-[(4′-fluorobiphenyl-4-yl)methoxy]-N,3-dihydroxy-2-methyl-3-[5-(methylsulfinyl)isoxazol-3-yl]propanamide]	0.000283	8 (≈ 17.8 µM)	> 64	0.015 (≈ 0.0334 µM)	1 (≈ 2.23 µM)	32 (≈ 71.4 µM)	> 64	32 (≈ 71.4 µM)
C[C@@](OCc1ccc(-c2ccccc2)cc1)(C(=O)NO)[C@@H](O)c1ccn[nH]1 [Example 45, (2S,3S)-2-(biphenyl-4-ylmethoxy)-N,3-dihydroxy-2-methyl-3-(1H-pyrazol-3-yl)propanamide]	0.00195	> 32	> 32	0.25 (≈ 0.68 µM)	16 (≈ 43.5 µM)	> 32	> 32	> 32
C[C@@](OCc1ccc(-c2ccc(-c3cnco3)cc2)cc1)(C(=O)NO)[C@@H](O)c1ccc(CO)o1 [Example 46, (2S,3S)-N,3-dihydroxy-3-[5-(hydroxymethyl)-2-furyl]-2-methyl-2-{[4′-(1,3-oxazol-5-yl)biphenyl-4-yl]methoxy}propanamide]	0.000366	> 8	> 8	0.25 (≈ 0.538 µM)	4 (≈ 8.61 µM)	> 8	> 8	> 8
CC(OCc1ccc(-c2ccccc2)cc1)(C(=O)NO)C1(O)CCC1 (stereo not shown) [Example 48, 2-(biphenyl-4-ylmethoxy)-N-hydroxy-2-(1-hydroxycyclobutyl)propanamide]	0.00623	> 64	> 64	< 0.06	16 (≈ 46.9 µM)	> 64	> 64	> 64
CNC(=O)C(C)(OCc1ccc(-c2ccc(-c3cc(CO)no3)cc2)cc1)C(=O)NO (stereo not shown) [Example 49, N-hydroxy-2-({4′-[3-(hydroxymethyl)isoxazol-5-yl]biphenyl-4-yl}methoxy)-N′,2-dimethylmalonamide]	0.00175	8 (≈ 18.8 µM)	> 16	0.045 (≈ 0.106 µM)	2 (≈ 4.7 µM)	> 16	> 16	> 16
CCCc1ccc(-c2ccc(COC(CO)(CO)C(=O)NO)cc2)cc1 [Example 51, N,3-dihydroxy-2-(hydroxymethyl)-2-[(4′-propylbiphenyl-4-yl)methoxy]propanamide]	0.00186	> 16	> 16	1 (≈ 2.78 µM)	> 16	> 16	> 16	> 16
Cc1cc(CNC(=O)C(C)(OCc2ccc(-c3ccc(F)cc3)nc2)C(=O)NO)no1 (stereo not shown) [Example 53, 2-{[6-(4-fluorophenyl)pyridin-3-yl]methoxy}-N-hydroxy-2-methyl-N′-[(5-methylisoxazol-3-yl)methyl]malonamide]	0.0143	16 (≈ 37.3 µM)	> 64	0.5 (≈ 1.17 µM)	32 (≈ 74.7 µM)	> 64	> 64	64 (≈ 149 µM)
CC(CO)(OCc1ccc(-c2ccc(-c3cc(CN4CCOCC4)no3)cc2)cc1)C(=O)NO (stereo not shown) [Example 55, N,3-dihydroxy-2-methyl-2-({4′-[3-(morpholin-4-ylmethyl)isoxazol-5-yl]biphenyl-4-yl}methoxy)propanamide]	0.00399	> 64	> 64	0.5 (≈ 1.07 µM)	32 (≈ 68.4 µM)	> 64	> 64	> 64
